Source: ChEMBL document CHEMBL6103648, “AI-Driven Discovery of Highly Specific and Efficacious hCES2A Inhibitors for Ameliorating Irinotecan-Triggered Gut Toxicity” (J Med Chem, 2025)
The source made the active and inactive calls. No cut-off for these calls is given here.

Legend:
[1] = (§1) Inhibition of CES2A in human HepG2 cells using NCEN as substrate assessed as decrease in green fluorescence preincubated fir 1 hr followed by substrate addition measured after 45 mins by Hoechst33342 staining based analysis; format: cell-based
HepG2 = experiment: as §1; format: cell-based; details: time 105.0 min
[2] = Sub-acute toxicity in C57BL/6J mouse assessed as change in mental state at 100 mg/kg/day, po treated for 14 days consecutively; format: organism-based; details: in vivo, 336 h, time 14 day
Cholinesterase = Cholinesterase (Homo sapiens, UniProt P06276); experiment: Inhibition of human BuChE using BTCI as substrate incubated for 33 mins by Ellman's method
[3] = Inhibition of human CES2A using fluorescein diacetate as substrate preincubated for 3 mins followed by substrate addition measured after 30 mins by fluorescence based assay
Mus musculus [4] = experiment: Inhibition of irinotecan-triggered gut toxicity in C57BL/6J mouse bearing tumor cells assessed as decrease in IL-1beta level in colon tissue administered orally treated for 14 days; format: functional, organism-based; details: dose 25-50 mg/kg/day, route po, time 14.0 day
Cytochrome P450 2C9 = Cytochrome P450 2C9 (Homo sapiens, UniProt P11712); experiment: Inhibition of CYP2C9 in human liver microsomes using diclofenac as substrate upto 10 uM; format: ADME, Microsome
Mus musculus [5] = experiment: Inhibition of irinotecan-triggered gut toxicity in C57BL/6J mouse bearing tumor cells assessed as decrease in IL-6 level in colon tissue administered orally treated for 14 days; format: functional, organism-based; details: dose 25-50 mg/kg/day, route po, time 14.0 day
Mus musculus [6] = experiment: Inhibition of irinotecan-induced anti-tumor activity in C57BL/6J mouse bearing tumor cells assessed as increase in tumor weight at 25 to 50 mg/kg/day, po treated for 14 days; format: functional, organism-based; details: dose 25-50 mg/kg/day, time 14.0 day
[7] = Sub-acute toxicity in C57BL/6J mouse assessed as change in ALB level at 100 mg/kg/day, po treated for 14 days consecutively; format: organism-based; details: in vivo, 336 h, time 14 day
Acetylcholinesterase = Acetylcholinesterase (Homo sapiens, UniProt P22303); experiment: Inhibition of human AChE using ATCI as substrate incubated for 3 mins by Ellman's method
[8] = Apparent permeability across basal to apical side in human Caco-2 cells at 100 uM incubated for 120 mins by UPLC-MS/MS analysis; format: ADME, cell-based
[9] = Permeability across basal to apical side in human Caco-2 cells assessed as cumulative penetration amount at 100 uM incubated for 120 mins by UPLC-MS/MS analysis; format: ADME, cell-based; details: caco-2, 2 h
[10] = Drug distribution in jejunum of C57BL/6J mouse at 100 mg/kg, po administered as single dose measured for 0.5 to 3 hrs by UHPLC-Q-Orbitrap HRMS analysis; format: ADME, organism-based; details: in vivo, time 0.5-3 hrs
[11] = Efflux ratio of apparent permeability across basal to apical side over apical to basal side in human Caco-2 cells at 50 uM incubated for 120 mins by UPLC-MS/MS analysis; format: ADME, cell-based
Homo sapiens [12] = organism: Homo sapiens; experiment: Inhibition of human CES2A assessed as decrease in residual activity measured upto 30 mins; details: dose <= 1.6 nM
[13] = Efflux ratio of apparent permeability across basal to apical side over apical to basal side in human Caco-2 cells at 100 uM incubated for 120 mins by UPLC-MS/MS analysis; format: ADME, cell-based
[14] = Sub-acute toxicity in C57BL/6J mouse assessed as change in TP level at 100 mg/kg/day, po treated for 14 days consecutively; format: organism-based; details: in vivo, 336 h, time 14 day
Mus musculus [15] = experiment: Inhibition of irinotecan-triggered gut toxicity in C57BL/6J mouse bearing tumor cells assessed as decrease in serum AST level at 25 to 50 mg/kg/day, po treated for 14 days; format: functional, organism-based; details: dose 25-50 mg/kg/day, time 14.0 day
[16] = Drug distribution in serum of C57BL/6J mouse at 100 mg/kg, po administered as single dose measured for 0.5 to 3 hrs by UHPLC-Q-Orbitrap HRMS analysis; format: ADME, organism-based; details: in vivo, time 0.5-3 hrs
Cytochrome P450 2C8 = biological target: T1, Cytochrome P450 2C8 (Homo sapiens, UniProt P10632); experiment: Inhibition of CYP2C8 in human liver microsomes using paclitaxel as substrate upto 10 uM; format: ADME, Microsome
T1 sequence (P10632 whole entry): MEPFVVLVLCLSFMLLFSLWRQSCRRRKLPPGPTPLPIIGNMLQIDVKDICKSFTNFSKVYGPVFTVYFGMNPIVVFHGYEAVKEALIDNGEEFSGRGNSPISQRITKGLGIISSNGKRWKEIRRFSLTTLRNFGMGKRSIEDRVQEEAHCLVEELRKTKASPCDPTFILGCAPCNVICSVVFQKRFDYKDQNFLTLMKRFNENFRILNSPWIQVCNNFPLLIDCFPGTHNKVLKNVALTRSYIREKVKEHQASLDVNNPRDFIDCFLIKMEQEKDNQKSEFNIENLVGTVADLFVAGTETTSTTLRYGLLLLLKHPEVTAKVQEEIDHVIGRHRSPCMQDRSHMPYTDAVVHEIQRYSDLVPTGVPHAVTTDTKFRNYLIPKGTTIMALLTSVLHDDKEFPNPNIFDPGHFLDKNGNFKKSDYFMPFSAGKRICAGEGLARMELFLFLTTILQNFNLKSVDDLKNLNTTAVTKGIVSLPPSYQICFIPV

Mus musculus [17] = experiment: Inhibition of irinotecan-triggered gut toxicity in C57BL/6J mouse bearing tumor cells assessed as decrease in TNF-alpha level in colon tissue administered orally treated for 14 days; format: functional, organism-based; details: dose 25-50 mg/kg/day, route po, time 14.0 day
[18] = Permeability across apical to basal side in human Caco-2 cells assessed as cumulative penetration amount at 50 uM incubated for 120 mins by UPLC-MS/MS analysis; format: ADME, cell-based; details: caco-2, 2 h
Homo sapiens [19] = organism: Homo sapiens; experiment: (§2) Covalent inhibition of human CES2A
[20] = as §2
Cytochrome P450 3A4 = Cytochrome P450 3A4 (Homo sapiens, UniProt P08684); experiment: Inhibition of CYP3A4 in human liver microsomes using testosterone as substrate upto 10 uM; format: ADME, Microsome
[21] = Sub-acute toxicity in C57BL/6J mouse assessed as abnormality in liver at 100 mg/kg/day, po treated for 14 days consecutively by H and E staining based analysis; format: organism-based; details: in vivo, 336 h, time 14 day
Mus musculus [22] = experiment: Inhibition of irinotecan-triggered gut toxicity in C57BL/6J mouse bearing tumor cells assessed as increase in claudin-1 level in colon tissue at 25 to 50 mg/kg/day, po treated for 14 days by immunofluorescence based analysis; format: functional, organism-based; details: dose 25-50 mg/kg/day, time 14.0 day

Chain of Cytochrome P450 2C9 (P11712 whole entry): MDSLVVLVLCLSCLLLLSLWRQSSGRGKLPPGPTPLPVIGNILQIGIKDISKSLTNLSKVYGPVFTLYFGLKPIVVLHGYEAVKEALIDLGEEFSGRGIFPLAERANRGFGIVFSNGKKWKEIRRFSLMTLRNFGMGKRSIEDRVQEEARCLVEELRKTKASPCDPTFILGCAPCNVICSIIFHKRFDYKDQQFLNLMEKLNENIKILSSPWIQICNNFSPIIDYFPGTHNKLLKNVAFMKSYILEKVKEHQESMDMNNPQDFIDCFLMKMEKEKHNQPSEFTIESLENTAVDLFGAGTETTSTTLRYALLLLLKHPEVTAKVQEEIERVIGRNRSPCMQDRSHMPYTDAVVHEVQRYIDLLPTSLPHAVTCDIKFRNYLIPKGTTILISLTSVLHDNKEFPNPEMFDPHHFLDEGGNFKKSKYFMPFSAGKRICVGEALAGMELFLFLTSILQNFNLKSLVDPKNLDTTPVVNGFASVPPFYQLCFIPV
Chain of Cytochrome P450 3A4 (P08684 whole entry): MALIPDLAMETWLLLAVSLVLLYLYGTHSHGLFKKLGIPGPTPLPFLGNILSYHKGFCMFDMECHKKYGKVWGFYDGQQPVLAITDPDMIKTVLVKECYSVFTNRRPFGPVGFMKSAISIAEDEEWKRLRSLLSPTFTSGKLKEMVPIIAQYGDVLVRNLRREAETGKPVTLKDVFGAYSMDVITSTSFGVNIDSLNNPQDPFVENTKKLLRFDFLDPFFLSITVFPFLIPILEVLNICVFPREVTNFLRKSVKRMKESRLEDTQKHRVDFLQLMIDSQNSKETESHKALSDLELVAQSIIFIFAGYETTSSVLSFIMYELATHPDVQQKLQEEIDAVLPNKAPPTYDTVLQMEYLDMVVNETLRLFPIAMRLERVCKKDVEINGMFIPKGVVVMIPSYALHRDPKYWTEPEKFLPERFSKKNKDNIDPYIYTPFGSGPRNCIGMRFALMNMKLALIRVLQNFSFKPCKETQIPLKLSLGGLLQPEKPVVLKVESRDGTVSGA
Chain of Cholinesterase (P06276 whole entry): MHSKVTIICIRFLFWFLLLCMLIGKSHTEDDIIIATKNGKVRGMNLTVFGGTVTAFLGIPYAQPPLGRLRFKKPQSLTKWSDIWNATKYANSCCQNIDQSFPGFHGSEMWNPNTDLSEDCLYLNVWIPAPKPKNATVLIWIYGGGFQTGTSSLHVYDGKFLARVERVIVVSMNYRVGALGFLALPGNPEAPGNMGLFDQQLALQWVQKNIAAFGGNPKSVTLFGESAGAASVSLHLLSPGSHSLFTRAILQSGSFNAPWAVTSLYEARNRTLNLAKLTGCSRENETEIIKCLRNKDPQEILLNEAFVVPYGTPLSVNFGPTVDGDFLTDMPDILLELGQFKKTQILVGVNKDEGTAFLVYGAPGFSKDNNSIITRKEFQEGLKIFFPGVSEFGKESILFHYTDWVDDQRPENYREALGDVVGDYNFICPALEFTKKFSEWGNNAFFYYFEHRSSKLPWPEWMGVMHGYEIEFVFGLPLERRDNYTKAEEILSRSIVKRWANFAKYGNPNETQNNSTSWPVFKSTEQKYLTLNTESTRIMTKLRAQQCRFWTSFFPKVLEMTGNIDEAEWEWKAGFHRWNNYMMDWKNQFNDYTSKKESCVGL
Chain of Acetylcholinesterase (P22303 whole entry): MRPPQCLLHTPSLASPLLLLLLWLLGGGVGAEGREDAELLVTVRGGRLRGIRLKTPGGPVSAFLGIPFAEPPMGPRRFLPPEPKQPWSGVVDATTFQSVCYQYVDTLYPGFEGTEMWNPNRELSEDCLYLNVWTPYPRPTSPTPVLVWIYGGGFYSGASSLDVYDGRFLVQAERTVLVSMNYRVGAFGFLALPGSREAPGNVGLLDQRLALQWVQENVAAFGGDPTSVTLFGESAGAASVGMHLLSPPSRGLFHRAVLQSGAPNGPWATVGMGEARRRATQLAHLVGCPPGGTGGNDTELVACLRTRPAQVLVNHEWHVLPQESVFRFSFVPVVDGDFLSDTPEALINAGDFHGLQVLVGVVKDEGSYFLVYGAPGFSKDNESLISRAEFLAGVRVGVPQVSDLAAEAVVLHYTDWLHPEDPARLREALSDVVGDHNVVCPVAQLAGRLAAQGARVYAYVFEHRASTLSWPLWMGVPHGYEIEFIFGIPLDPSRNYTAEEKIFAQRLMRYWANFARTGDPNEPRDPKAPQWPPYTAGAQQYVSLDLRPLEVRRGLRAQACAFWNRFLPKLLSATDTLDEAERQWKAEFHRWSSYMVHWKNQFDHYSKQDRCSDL

CCN(C)C(=O)Oc1ccc(C(=O)N2CCC(Cc3ccccc3)CC2)cc1OC
IC50 [1]: 0.36 nM
inhibition (HepG2): Dose-dependent-effect
Activity [2]: Non-toxic
IC50 (Cholinesterase): 834 nM
IC50 [3]: 0.69 nM
inhibition (Mus musculus [4]): Active
inhibition (INH) (Cytochrome P450 2C9): Not_active
inhibition (Mus musculus [5]): Active
inhibition (Mus musculus [6]): inactive
Activity [7]: Non-toxic
IC50 (Acetylcholinesterase): > 10000 nM
Papp B→A at 2 h, 100 µM [8]: 7.8 ×10⁻⁶ cm/s
Activity [9]: 6.29 µM
Drug uptake [10]: Active
efflux ratio at 2 h, 50 µM [11]: 0.67
inhibition (Homo sapiens [12]): Dose-dependent-effect
efflux ratio at 2 h, 100 µM [13]: 0.66
Activity [14]: Non-toxic
inhibition (Mus musculus [15]): Active
Drug uptake [16]: Not_active
inhibition (INH) (Cytochrome P450 2C8): Not_active
inhibition (Mus musculus [17]): Active
Activity [18]: 6.31 µM
Kinact (Homo sapiens [19]): 0.033 min⁻¹
Ki [20]: 0.065 nM
inhibition (INH) (Cytochrome P450 3A4): Not_active
Activity [21]: Non-toxic
inhibition (Mus musculus [22]): Active
